For 46 compounds, IC50 results are on record in ChEMBL document CHEMBL3301464, “MMV Malaria Box anti-babesial screening”.

Test [1] can be described thus: (§1) MMV: Anti-babesial activity assay. Parasite pRBCs at 1% parasitemia were cultivated in 100 ul with 96-well plates at 2.5% and 5% hematocrits. The parasites were cultivated in triplicate for 4 days without replacement of the medium for each concentration of the compound. The test is classed as functional, Babesia bigemina.
Test [2] can be described thus: as §1. The test is classed as functional, Babesia bovis.
A short description of test [3]: as §1. In kind it is functional, Babesia equi.
A short description of test [4]: as §1. In kind it is functional, Babesia caballi.

For the compound `Cc1ccc(S(=O)(=O)c2c(COC(=O)c3cccc(C)c3)c(-c3ccccc3)nn2C)cc1`, the IC50 (as a rule, the concentration at which inhibition is half-maximal) in test [1] is 1 µM; in test [2] it was 0.068 µM; in test [3], 12.7 µM; in test [4], 20.4 µM.
On to `Cn1c(=O)n(C)c2cc(CNCCNc3ccnc4cc(Cl)ccc34)ccc21`, for which the IC50 in test [1] stood at 0.081 µM; in test [2], 0.071 µM; in test [3], 0.1 µM; in test [4], 0.489 µM.
On to `CCOC(=O)c1c(C)n(-c2ccccc2)c2ccc(OC(=O)c3cc(OC)c(OC)c(OC)c3)cc12`, for which the half-inhibitory concentration (IC50) is 12.6 µM in test [1], 18.6 µM in test [2], 16.5 µM in test [3] and 5.9 µM in test [4].
For the compound `CCC1(C)CC(CCNCc2ccccc2O)(c2ccc(C)cc2)CCO1` (centres undefined), the IC50 in test [1] worked out at 16.8 µM; in test [2], 14.1 µM; in test [3], 0.61 µM; in test [4], 7.3 µM.
Taken in the same sequence, the figures for `CCOC(=O)C1CCN(C(=O)CN2C(=O)c3ccccc3C2c2c[nH]c3ccccc23)CC1` (centres undefined) were 25 µM, more than 25 µM, 4.19 µM and 5.35 µM.
Taken in the same sequence, the figures for `Cc1cc(C)c2nc(N3CCC(C(=O)NCCCN4CCC(N5CCCCC5)CC4)CC3)sc2c1` were 3.91 µM, 2.74 µM, 0.64 µM and 4.77 µM.
Take `CN1C=C(c2ccc3ccccc3n2)C(c2c[nH]c3ccccc23)c2ccccc21` (centres undefined): the IC50 in test [1] is 4.52 µM; in test [2], 5.9 µM; in test [3], 5.12 µM; in test [4] it was 0.304 µM.
Taken in the same sequence, the figures for `CCC(=O)Nc1nnc(Cc2ccc(OC)c(OC)c2)s1` were 10 µM, 1.29 µM, 12.4 µM and 4.65 µM.
Turning to `OCCNc1nc(Nc2ccc(Cl)c(Cl)c2)nc2ccccc12`, the IC50 in test [1] is 3.34 µM; in test [2], 0.52 µM; in test [3], 1.39 µM; in test [4], 0.1 µM.
The matching figures for `Clc1ccc2[nH]c3c(NCCCN4CCOCC4)ncnc3c2c1`: 1.1 µM, 7.75 µM, 7.38 µM and 1 µM.
Taken in the same sequence, the figures for `Cc1ccc(Nc2nc(NCCO)c3ccccc3n2)cc1C` were 6.36 µM, 3.63 µM, 2.2 µM and 5 µM.
Turning to `O=C(CCc1ccco1)NC1CCN(CC2(c3ccc(Cl)cc3)CCC2)CC1`, the IC50 was 1.87 µM in test [1], 5.06 µM in test [2], 3.39 µM in test [3] and more than 25 µM in test [4].
The matching figures for `COc1ccc(C2Sc3ccccc3N=C3C2=C(O)c2ccccc23)cc1` (centres undefined): 4.09 µM, 13.9 µM, 15.8 µM and 7.09 µM.
Take `CCCCCCc1cc(O)c2c3c(c(=O)oc2c1)CCC(C)C3` (centres undefined): the IC50 in test [1] is 10 µM; in test [2], 5.1 µM; in test [3] it was 3.26 µM; in test [4] it was 15.9 µM.
The matching figures for `CC(C)(C)CC(C)(C)NCC(O)COc1ccc2c(c1)CCC2` (centres undefined): 0.6 µM, 10 µM, 2.45 µM and 6.81 µM.
For `COc1cccc(-c2nn(C)c3sc(C(=O)NCCN4CCN(c5ccccc5F)CC4)cc23)c1`, the IC50 in test [1] was found to be 10 µM; in test [2] it was 2.06 µM; in test [3], 5.93 µM; in test [4], 6.8 µM.
On to `CC(C)(C)c1ccc2c(c1)CN(Cc1ccc(Cl)cc1)CO2`, for which the IC50 in test [1] was more than 25 µM; in test [2], 16.5 µM; in test [3], 12.8 µM; in test [4] it was 5.9 µM.
The matching figures for `Brc1ccc(Nc2nc3ccccc3nc2Nc2ccc(Br)cc2)cc1`: 3.73 µM, 2.09 µM, 4.53 µM and 5.09 µM.
Consider `O=C(Nc1ccc(Cl)c(Cl)c1)Nc1ccc(Cl)c(Cl)c1`, for which the IC50 in test [1] was found to be 2.95 µM; in test [2] it was 0.59 µM; in test [3] it was 0.21 µM; in test [4], 4.91 µM.
`CCOC(=O)C1=C(C)N=c2sc(=Cc3cc(Cl)ccc3O)c(=O)n2C1c1ccc(OC)cc1` (centres undefined): the IC50 in test [1] stood at 14.1 µM; in test [2], 18.1 µM; in test [3], 14.6 µM; in test [4], 15.9 µM.
Turning to `Cc1cc(NC(=O)c2cccc(C(F)(F)F)c2)n(-c2nc(-c3ccc4c(c3)OCO4)cs2)n1`, the IC50 stood at 8.83 µM in test [1], 18 µM in test [2], 12.3 µM in test [3] and 0.08 µM in test [4].
Taken in the same sequence, the figures for `COc1ccccc1N1CCN(C(CNS(=O)(=O)c2ccc(Cl)cc2)c2cccnc2)CC1` (centres undefined) were 2.16 µM, 0.669 µM, 17.2 µM and 13.5 µM.
The matching figures for `CCn1c2c(c(=N)c3c1CCC3)CCCC2`: 0.082 µM, 0.052 µM, 15 µM and 0.44 µM.
Turning to `O=C(CSc1ccc2nnc(-c3cccc(F)c3)n2n1)Nc1ccc2c(c1)OCO2`, the IC50 in test [1] was determined as 20.2 µM; in test [2], 11.9 µM; in test [3], 12.9 µM; in test [4], 18.2 µM.
Taken in the same sequence, the figures for `O=C(NC1CCCCC1)C(c1cccs1)N(CCc1ccccc1)C(=O)c1ccco1` (centres undefined) were 10.7 µM, 8.8 µM, 14.1 µM and 10.7 µM.
Take `O=C(Nc1ccc(C23CC4CC(CC(c5ccccc5)(C4)C2)C3)cc1)c1cccs1`: the IC50 stood at 10.4 µM in test [1], 8.1 µM in test [2], 15.2 µM in test [3] and 16.8 µM in test [4].
The matching figures for `O=C(NNc1cc(N2CCCC2)nc(N2CCCC2)n1)c1ccccc1`: 13.9 µM, 4.58 µM, 5.3 µM and 5.5 µM.
Take `Cc1nc2ccccc2c(O)c1CC=C(Cl)Cl`: the IC50 was 10.7 µM in test [1], 4.27 µM in test [2], 15.2 µM in test [3] and 3.02 µM in test [4].
Taken in the same sequence, the figures for `O=C(Nc1ccccc1O)c1ccc(Oc2cccc(C(=O)Nc3ccccc3O)c2)cc1` were 2.86 µM, 6.45 µM, 4.19 µM and 19.4 µM.
On to `CC1CCCCN1CCCNC(=O)c1ccc2c(c1)sc1nc(-c3ccc(F)cc3)cn12` (centres undefined), for which the IC50 in test [1] was determined as 3.9 µM; in test [2], 0.19 µM; in test [3] it was 0.1 µM; in test [4], 8.54 µM.
The matching figures for `FC(F)(F)c1ccc(Nc2nnnc3ccccc23)cc1`: 7.18 µM, 25 µM, 10 µM and 13.4 µM.
As to `Oc1ccc(C(=C(Cl)Cl)c2ccc(O)cc2)cc1`, the IC50 in test [1] is more than 25 µM; in test [2], 15.9 µM; in test [3] it was 13.8 µM; in test [4], 21.1 µM.
As to `COc1ccc(C(=O)Nc2nonc2-c2ccc(OC)c(OC)c2)cc1Cl`, the IC50 in test [1] was 19.3 µM; in test [2], more than 25 µM; in test [3], 20.4 µM; in test [4], 15.9 µM.
As for `CC1CCN(Cc2c(O)ccc3cc(-c4nc5ccccc5s4)c(=O)oc23)CC1`, the IC50 in test [1] is 5.5 µM; in test [2], 6.9 µM; in test [3], 4.27 µM; in test [4], 3.73 µM.
The matching figures for `COc1cccc(C(=O)Nc2ccc(-c3nc4ccccc4[nH]3)cc2)c1`: 4.77 µM, 1 µM, 7.38 µM and 4.89 µM.
The matching figures for `O=C(CCl)NCCOc1ccc(Cl)cc1Cl`: 13.1 µM, 16.5 µM, 16.5 µM and 12 µM.
The matching figures for `COc1ccc(CCn2c(=N)c(C(=O)NCc3cccnc3)cc3c(=O)n4cccc(C)c4nc32)cc1`: 0.052 µM, 0.13 µM, 0.41 µM and 4.27 µM.
`CCCOCc1cc(CN2CCN(c3cccc(Cl)c3)CC2)c(O)c2ncccc12`: the IC50 in test [1] came to 3.86 µM; in test [2], 1.74 µM; in test [3], 2.95 µM; in test [4], 5.9 µM.
`CCOc1ccc(C2N(C)c3ccccc3N2C)cc1`: the 50% inhibitory concentration (IC50) came out at 0.85 µM in test [1], 5.5 µM in test [2], 3.53 µM in test [3] and 0.5 µM in test [4].
Consider `COc1ccc(C2=C(c3ccc(OC)cc3)C3(c4ccccc4)C(=O)C2(c2ccccc2)C2C(=O)N(c4ccc(C)cc4)C(=O)C23)cc1` (centres undefined), for which the IC50 worked out at 14.1 µM in test [1], 15.4 µM in test [2], 14.2 µM in test [3] and 14.7 µM in test [4].
For `OC1=C2C(=Nc3ccccc3SC2c2ccccc2)c2ccccc21` (centres undefined), the IC50 in test [1] was found to be 0.5 µM; in test [2] it was 0.1 µM; in test [3] it was 0.1 µM; in test [4] it was 8.77 µM.
As to `CCOc1ccccc1NC(=O)CN1CCN(C(=O)c2ccco2)CC1`, the IC50 in test [1] is 17.5 µM; in test [2], 25 µM; in test [3], 10.3 µM; in test [4] it was 3.81 µM.
As to `COc1cc2cc(C(=O)Nc3ccccc3)c(N)nc2cc1OC`, the IC50 in test [1] came out at 21.1 µM; in test [2], 0.86 µM; in test [3], 3.04 µM; in test [4], 6.22 µM.
Take `CCCCc1c(CCC)c(=N)c2ccccc2n1C`: the IC50 in test [1] was found to be 0.059 µM; in test [2], 0.087 µM; in test [3] it was 15.2 µM; in test [4], 1 µM.
Taken in the same sequence, the figures for `COc1ccc(-c2nonc2NC(=O)c2cccc(C)c2)cc1OC` were 0.69 µM, 0.078 µM, 5.64 µM and 10 µM.
With `CCOc1ccc(CN2CCN(CC(O)COc3ccc(OCC(O)CN4CCN(Cc5ccc(OCC)cc5)CC4)cc3)CC2)cc1` (centres undefined), the IC50 in test [1] is 0.13 µM; in test [2], 0.05 µM; in test [3], 0.45 µM; in test [4], 0.37 µM.
